# Key:
# MMP-9 = MMP-9 in conditioned media of peritoneal macrophages, gelatin zymography; format: in vivo, rat; settings: diabetic rats, oral 30 mg/kg daily, 21 days; no LPS
# Procedure: (§1) Adult male Sprague-Dawley rats (body weight 300-350 g) were injected through the tail vein with either 0.9% saline (non-diabetic control) or with the same solution containing streptozotocin (70 mg/kg body weight) to induce diabetes. Non-diabetic rats served as normal controls. The diabetic rats were distributed into 2 experimental groups (3 rats per group). Urine glucose levels were measured weekly with Tes-Tape (Eli Lilly Inc.). One group of rats was treated by oral gavage of Compound 4 (30 mg/kg body weight) daily for 21 days; the Compound 4 was suspended in 2% carboxymethyl cellulose and polytron/homogenized. The normal & diabetic vehicle-treated (control) groups were oral gavaged with vehicle alone daily.
# (§2) Rat peritoneal macrophages were harvested with 10 ml RPMI 4 days after intraperitoneal injection of 10 ml of thioglycolate (3% wt/vol). Macrophages were then purified by density gradient centrifugation (lymphoprep) and cell numbers were counted in a hemocytometer. The cells were then tested in a cell migration assay (Cell BioLabs, Inc, CytoSelect 96-well with 5 um fluorometric format) using conditioned medium containing inflammatory mediators including MCP-1 from LPS-macrophages as a chemoattractant. The macrophages from different groups of rats were also plated onto 24 well-plates with and without p.g.LPS challenge for 24 hours in 37° C., 5% CO2. […]
# [1] = blood glucose of the rats of the collagen experiment; format: in vivo, rat; settings: diabetic rats
# peritoneal macrophages = test: macrophage accumulation in peritoneal exudates of diabetic rats; format: in vivo, rat; settings: oral 30 mg/kg daily, 21 days
# Procedure: as §1, §2
# [2] = system: MMP-2 (72 kDa gelatinase); test: gelatin zymography of skin wound extracts; format: in vivo, rat; settings: diabetic rats, 1% topical, day 7
# Procedure: (§3) The following five experimental groups (n=3 rats per group) were established: Non-diabetic control rats (NDC) treated by daily application of white petrolatum jelly (“vehicle”) for 7 days, diabetic rats (D group) treated daily with vehicle alone; diabetics treated by daily topical application of either a 1% (D+1%) or a 3% (D+3%) suspension of Compound 4 in the vehicle; and diabetics treated systemically by daily oral intubation of a 1 ml suspension of Compound 4 (in carboxymethylcellulose) at a dose of 30 mg/kg over the 7-day treatment protocol (D+30 mg/kg). At the end of this time period, the circular wounds were clinically assessed by measuring diameter of the wound in millimeters, blood samples were collected, the rats were sacrificed, and skin samples collected for histological/histochemical, and biochemical assessment as described below. • 1) On day 7 after inducing wound healing, the animals were anesthetized and blood samples collected for blood glucose (one Touch Ultra Glucometer; Johnson & Johnson, New Brunswick, N.J.) and Hemoglobin A1c (A1c Now+; Bayer Health Care, Sunnyvale, Calif.) measurements. • 2) Photographs were taken for clinical observations to assess wound closure. […]
# [3] = system: MMP-9 (92 kDa gelatinase); test: gelatin zymography of skin wound extracts; format: in vivo, rat; settings: diabetic rats, all three treatments (1%, 3% topical, oral 30 mg/kg), day 7
# Procedure: as §3
# MMP-14 = MMP-14 (Homo sapiens, UniProt P50281); test: fluorimetric assay of MMP activity; format: biochemical; settings: synthetic fluorescent peptide substrate Mca-Lys-Pro-Leu-Gly-Leu-Dpa-Ala-Arg-NH2
# skin wounds = test: histological and histomorphometric assessment of skin wounds; format: in vivo, rat; settings: diabetic rats, topical 1% and systemic compared with topical 3%, 7 days
# Procedure: as §3
# MMP-12 = MMP-12 (Homo sapiens, UniProt P39900); test: fluorimetric assay of MMP activity; format: biochemical; settings: synthetic fluorescent peptide substrate Mca-Lys-Pro-Leu-Gly-Leu-Dpa-Ala-Arg-NH2
# Chain of MMP-12 (P39900 106-470): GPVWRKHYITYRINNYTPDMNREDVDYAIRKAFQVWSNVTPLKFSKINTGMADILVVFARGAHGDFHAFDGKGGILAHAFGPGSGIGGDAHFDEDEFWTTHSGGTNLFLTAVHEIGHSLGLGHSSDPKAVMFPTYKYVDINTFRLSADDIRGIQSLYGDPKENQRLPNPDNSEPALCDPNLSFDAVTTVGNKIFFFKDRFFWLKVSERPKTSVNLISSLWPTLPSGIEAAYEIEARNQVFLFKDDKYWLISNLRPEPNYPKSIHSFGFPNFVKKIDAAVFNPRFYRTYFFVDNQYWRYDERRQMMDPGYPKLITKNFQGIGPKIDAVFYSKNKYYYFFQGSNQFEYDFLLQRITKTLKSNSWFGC
# [4] = system: MMPs 1, 2, 3, 7, 8, 9, 12, 13 and 14; test: activity against a battery of MMPs (summary in words); format: biochemical, human
# MMP-1 = target: T1, MMP-1 (Homo sapiens, UniProt P03956); test: fluorimetric assay of MMP activity; format: biochemical; settings: synthetic fluorescent peptide substrate Mca-Lys-Pro-Leu-Gly-Leu-Dpa-Ala-Arg-NH2
# T1 sequence (P03956 100-469): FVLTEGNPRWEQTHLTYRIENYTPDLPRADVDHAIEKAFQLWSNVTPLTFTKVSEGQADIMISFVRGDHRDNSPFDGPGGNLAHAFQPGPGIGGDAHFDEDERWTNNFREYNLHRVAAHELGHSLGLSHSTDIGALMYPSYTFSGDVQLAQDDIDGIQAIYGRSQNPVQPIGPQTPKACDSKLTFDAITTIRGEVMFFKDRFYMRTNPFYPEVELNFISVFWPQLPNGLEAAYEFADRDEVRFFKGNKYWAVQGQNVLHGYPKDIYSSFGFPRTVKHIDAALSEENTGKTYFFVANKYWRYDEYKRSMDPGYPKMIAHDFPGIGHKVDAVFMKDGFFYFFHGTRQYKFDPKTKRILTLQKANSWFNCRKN
structure (smiles),measurement,setting,value
"O=C(/C=C/c1ccc(O)cc1)C(C(=O)/C=C/c1ccc(O)cc1)C(=O)Nc1ccccc1 [Compound 4, 1,7-Bis(4-hydroxyphenyl)-4-N-phenylaminocarbonylhepta-1E, 6E-dien-3,5-dione]",MMP-9 levels in peritoneal macrophages,MMP-9,decreased
same,Blood Glucose,[1]; 0.25% topical,538 mg/dL
same,Blood Glucose,[1]; 1% topical,545 mg/dL
same,macrophage accumulation in peritoneal exudates,peritoneal macrophages,decreased pathologically excessive macrophage accumulation
same,MMP-2 in skin wounds,[2],"does not suppress, and perhaps even enhances"
same,level of pro-MMP-9 and activated MMP-9 in skin wounds,[3],attenuated this diabetic effect
same,IC50,MMP-14,15.3 ± 3.1 µM
same,histological healing of epithelium and connective tissue,skin wounds,more effective than treatment with topical 3% Compound 4
same,IC50,MMP-12,2 ± 0.4 µM
same,anti-MMP activity (in words),[4],highly active
same,IC50,MMP-1,69.8 ± 2 µM

# Source: US20160355465A1, “NOVEL MODIFIED CURCUMINS AND THEIR USES” (THE RESEARCH FOUNDATION OF STATE UNIVERSITY OF NEW YORK, priority 2011, published 2016)
